Measured values from patent US20140200233A1, “USE OF MAD2L2 AS A STRATIFICATION MARKER IN THE TREATMENT OF BREAST TUMOURS WITH NOVEL PAN-CDK INHIBITORS” (BAYER INTELLECTUAL PROPERTY GMBH, priority 2011, published 2014).
pIC50: −log10 of the molar value.

Experiments:
Assay type in all cases: cell-based
[1] = tested on: KPL-1; test: Proliferation assay, Method 2 (Vybrant MTT); conditions: Homo sapiens, KPL-1 breast tumour cell line
[2] = tested on: MDA-MB-453; test: Proliferation assay, Method 2 (Vybrant MTT); conditions: Homo sapiens, MDA-MB-453 breast tumour cell line
[3] = tested on: Hs 578T; test: Proliferation assay, Method 2 (Vybrant MTT); conditions: Homo sapiens, Hs 578T breast tumour cell line
[4] = tested on: MDA-MB-231; test: Proliferation assay, Method 2 (Vybrant MTT); conditions: Homo sapiens, MDA-MB-231 breast tumour cell line
[5] = tested on: MDA-MB-468; test: Proliferation assay, Method 2 (Vybrant MTT); conditions: Homo sapiens, MDA-MB-468 breast tumour cell line
[6] = tested on: ZR-75-1; test: Proliferation assay, Method 2 (Vybrant MTT); conditions: Homo sapiens, ZR-75-1 breast tumour cell line
[7] = tested on: T-47D; test: Proliferation assay, Method 2 (Vybrant MTT); conditions: Homo sapiens, T47D, T-47D breast tumour cell line
[8] = tested on: MDA-MB-435s; test: Proliferation assay, Method 2 (Vybrant MTT); conditions: Homo sapiens, MDA-MB-435s breast tumour cell line
[9] = tested on: DU-4475; test: Proliferation assay, Method 2 (Vybrant MTT); conditions: Homo sapiens, DU-4475 breast tumour cell line
[10] = tested on: BT-20; test: Proliferation assay, Method 2 (Vybrant MTT); conditions: Homo sapiens, BT-20 breast tumour cell line
[11] = tested on: BT-474; test: Proliferation assay, Method 2 (Vybrant MTT); conditions: Homo sapiens, BT-474 breast tumour cell line
[12] = tested on: EVSA-T; test: Proliferation assay, Method 2 (Vybrant MTT); conditions: Homo sapiens, EVSA-T breast tumour cell line
[13] = tested on: BT-549; test: Proliferation assay, Method 2 (Vybrant MTT); conditions: Homo sapiens, BT-549 breast tumour cell line
[14] = tested on: 786-O; test: Proliferation assay, Method 1 (crystal violet); conditions: Homo sapiens, 786-0, 96 h, 786-O renal carcinoma cell line, 4 days
Protocol: (§1) This assay was used for the following cell lines: MCF 10A, SK-BR-3, MCF7, HCT 116, HT-29, SW480, Caco-2, MIAPaCa-2, DU145, PC3, HeLa, Caki2, 786-0, A-375, NCI-H460, NCI-H69, NCI-H1975, A549.
(§2) Cultivated human tumour cells (originally obtained from ATCC, HeLa-MaTu and HeLa-MaTu-ADR, originally obtained from Epo GmbH, Berlin) were plated in a density of from 1000 to 5000 cells/measurement point, depending on the growth rate of the cell line, in a 96-well multititre plate in 200 μl of growth medium (DMEM/HAMS F12, 2 mM L-glutamine, 10% foetal calf serum). After 24 hours, the cells of one plate (zero-point plate) were stained with crystal violet (see below), while the medium of the other plates was replaced by fresh culture medium (200 μl) with added test substances in various concentrations (0 μM, and in the range of 0.01-30 μM; the final concentration of the solvent dimethyl sulphoxide was 0.5%). The cells were incubated in the presence of the test substances for 4 days. Cell proliferation was determined by staining the cells with crystal violet: the cells were fixated by addition of 20 μl/measuring point of an 11% strength glutaraldehyde solution for 15 min at room temperature. After the fixated cells had been washed three times with water, the plates were dried at room temperature. The cells were stained by addition of 100 μl/measuring point of a 0.1% strength crystal violet solution (pH adjusted to pH 3 by addition of acetic acid). After the stained cells had been washed three times with water, the plates were dried at room temperature. The dye was dissolved by addition of 100 μl/measuring point of a 10% strength acetic acid solution. The absorption was determined photometrically at a wavelength of 595 nm. The change in percent of the cell growth was calculated by normalizing the measured values to the absorption values of the zero-point plate (=0%) and the absorption of the untreated (0 μM) cells (=100%). The measured data were normalized to 0% inhibition (cell proliferation without inhibitor) and 100% inhibition (zero-point plate). The IC50 values were determined using a 4-parameter fit with the aid of proprietary software.

[15] = tested on: A-375; test: Proliferation assay, Method 1 (crystal violet); conditions: Homo sapiens, 96 h, A-375 melanoma cell line, 4 days
Protocol: as §1, §2

[16] = tested on: Caco-2; test: Proliferation assay, Method 1 (crystal violet); conditions: Homo sapiens, 96 h, Caco-2 colon carcinoma cell line, 4 days
Protocol: as §1, §2

[17] = tested on: Caki2; test: Proliferation assay, Method 1 (crystal violet); conditions: Homo sapiens, CAKI-2, 96 h, Caki2 renal carcinoma cell line, 4 days
Protocol: as §1, §2

[18] = tested on: DU145; test: Proliferation assay, Method 1 (crystal violet); conditions: Homo sapiens, DU-145, 96 h, DU145 prostate carcinoma cell line, 4 days
Protocol: as §1, §2

[19] = tested on: HCT 116; test: Proliferation assay, Method 1 (crystal violet); conditions: Homo sapiens, 96 h, HCT 116 colon carcinoma cell line, 4 days
Protocol: as §1, §2

[20] = tested on: HT-29; test: Proliferation assay, Method 1 (crystal violet); conditions: Homo sapiens, 96 h, HT-29 colon carcinoma cell line, 4 days
Protocol: as §1, §2

[21] = tested on: HeLa; test: Proliferation assay, Method 1 (crystal violet); conditions: Homo sapiens, 96 h, HeLa cervix carcinoma cell line, 4 days
Protocol: as §1, §2

[22] = tested on: MCF7; test: Proliferation assay, Method 1 (crystal violet); conditions: Homo sapiens, 96 h, MCF7 breast tumour cell line, 4 days
Protocol: as §1, §2

[23] = tested on: MIAPaCa-2; test: Proliferation assay, Method 1 (crystal violet); conditions: Homo sapiens, MIA PaCa-2, 96 h, MIAPaCa-2 pancreas carcinoma cell line, 4 days
Protocol: as §1, §2

[24] = tested on: PC3; test: Proliferation assay, Method 1 (crystal violet); conditions: Homo sapiens, PC-3, 96 h, PC3 prostate carcinoma cell line, 4 days
Protocol: as §1, §2

[25] = tested on: SK-BR-3; test: Proliferation assay, Method 1 (crystal violet); conditions: Homo sapiens, 96 h, SK-BR-3 breast tumour cell line, 4 days
Protocol: as §1, §2

[26] = tested on: SW480; test: Proliferation assay, Method 1 (crystal violet); conditions: Homo sapiens, 96 h, SW480 colon carcinoma cell line, 4 days
Protocol: as §1, §2

[27] = tested on: A549; test: Proliferation assay (listed under Method 1 and Method 2); conditions: Homo sapiens; A549 (non-small-cell lung carcinoma); method 1 or 2
Protocol: as §1, §2

[28] = tested on: MCF 10A; test: as above; conditions: Homo sapiens; MCF 10A breast cell line; method 1 or 2
Protocol: as §1, §2

[29] = tested on: NCI-H1975; test: as above; conditions: Homo sapiens; NCI-H1975 (non-small-cell lung carcinoma); method 1 or 2
Protocol: as §1, §2

[30] = tested on: NCI-H460; test: as above; conditions: Homo sapiens; NCI-H460 (non-small-cell lung carcinoma); method 1 or 2
Protocol: as §1, §2

[31] = tested on: NCI-H69; test: as above; conditions: Homo sapiens; NCI-H69 (small-cell lung carcinoma); method 1 or 2
Protocol: as §1, §2

[32] = tested on: NCI-H810; test: Proliferation assay, Method 2 (Vybrant MTT); conditions: Homo sapiens, NCI-H810 (non-small-cell lung carcinoma)
[33] = tested on: NCI-H441; test: Proliferation assay, Method 2 (Vybrant MTT); conditions: Homo sapiens, NCI-H441 (papillary lung carcinoma)
[34] = tested on: NCI-H1838; test: Proliferation assay, Method 2 (Vybrant MTT); conditions: Homo sapiens, NCI-H1838 (non-small-cell lung carcinoma)
[35] = tested on: NCI-H2030; test: Proliferation assay, Method 2 (Vybrant MTT); conditions: Homo sapiens, NCI-H2030 (non-small-cell lung carcinoma)
[36] = tested on: NCI-H358; test: Proliferation assay, Method 2 (Vybrant MTT); conditions: Homo sapiens, NCI-H358 (non-small-cell lung carcinoma)
[37] = tested on: NCI-H1793; test: Proliferation assay, Method 2 (Vybrant MTT); conditions: Homo sapiens, NCI-H1793 (non-small-cell lung carcinoma)
[38] = tested on: NCI-H1048; test: Proliferation assay, Method 2 (Vybrant MTT); conditions: Homo sapiens, NCI-H1048 (small-cell lung carcinoma)
[39] = tested on: SK-MES-1; test: Proliferation assay, Method 2 (Vybrant MTT); conditions: Homo sapiens, SK-MES-1 (squamous-cell carcinoma)
[40] = tested on: NCI-H2347; test: Proliferation assay, Method 2 (Vybrant MTT); conditions: Homo sapiens, NCI-H2347 (non-small-cell lung carcinoma)
[41] = tested on: NCI-H23; test: Proliferation assay, Method 2 (Vybrant MTT); conditions: Homo sapiens, NCI-H23 (non-small-cell lung carcinoma)
[42] = tested on: NCI-H2170; test: Proliferation assay, Method 2 (Vybrant MTT); conditions: Homo sapiens
[43] = tested on: NCI-H2228; test: Proliferation assay, Method 2 (Vybrant MTT); conditions: Homo sapiens, NCI-H2228 (non-small-cell lung carcinoma)
[44] = tested on: NCI-H661; test: Proliferation assay, Method 2 (Vybrant MTT); conditions: Homo sapiens, NCI-H661 (non-small-cell lung carcinoma)
[45] = tested on: NCI-H1703; test: Proliferation assay, Method 2 (Vybrant MTT); conditions: Homo sapiens, NCI-H1703 (non-small-cell lung carcinoma)
[46] = tested on: NCI-H1581; test: Proliferation assay, Method 2 (Vybrant MTT); conditions: Homo sapiens, NCI-H1581 (non-small-cell lung carcinoma)
[47] = tested on: NCI-H226; test: Proliferation assay, Method 2 (Vybrant MTT); conditions: Homo sapiens, NCI-H226 (mesothelioma)
[48] = tested on: NCI-H1563; test: Proliferation assay, Method 2 (Vybrant MTT); conditions: Homo sapiens, NCI-H1563 (non-small-cell lung carcinoma)
[49] = tested on: NCI-H522; test: Proliferation assay, Method 2 (Vybrant MTT); conditions: Homo sapiens, NCI-H522 (non-small-cell lung carcinoma)
[50] = tested on: ChaGo-K-1; test: Proliferation assay, Method 2 (Vybrant MTT); conditions: Homo sapiens, ChaGo-K-1 (undifferentiated bronchial carcinoma)
[51] = tested on: NCI-H1437; test: Proliferation assay, Method 2 (Vybrant MTT); conditions: Homo sapiens, NCI-H1437 (non-small-cell lung carcinoma)

SMILES: C[C@@H](O)[C@@H](C)Oc1nc(Nc2ccc([S@](=N)(=O)C3CC3)cc2)ncc1C(F)(F)F [Compound A, (2R,3R)-3-{[2-{[4-(R-cyclopropylsulphonimidoyl)phenyl]amino}-5-(trifluoromethyl)pyrimidin-4-yl]oxy}butan-2-ol]
- pIC50 [1]: 8.19
- pIC50 [2]: 7.82
- pIC50 [3]: 7.77
- pIC50 [4]: 7.69
- pIC50 [5]: 7.54
- pIC50 [6]: 7.49
- pIC50 [7]: 7.47
- pIC50 [8]: 7.44
- pIC50 [9]: 7.43
- pIC50 [10]: 7.42
- pIC50 [11]: 7.37
- pIC50 [12]: 7.35
- pIC50 [13]: 7.08
- pIC50 [14]: 7.70
- pIC50 [15]: 7.85
- pIC50 [16]: 7.80
- pIC50 [17]: 7.59
- pIC50 [18]: 8.10
- pIC50 [19]: 7.74
- pIC50 [20]: 7.54
- pIC50 [21]: 7.92
- pIC50 [22]: 7.82
- pIC50 [23]: 7.68
- pIC50 [24]: 7.60
- pIC50 [25]: 7.89
- pIC50 [26]: 7.82
- pIC50 [27]: 7.51
- pIC50 [28]: 7.70
- pIC50 [29]: 7.62
- pIC50 [30]: 7.57
- pIC50 [31]: 7.57
- pIC50 [32]: 8.05
- pIC50 [33]: 8.00
- pIC50 [34]: 7.80
- pIC50 [35]: 7.75
- pIC50 [36]: 7.71
- pIC50 [37]: 7.65
- pIC50 [38]: 7.60
- pIC50 [39]: 7.58
- pIC50 [40]: 7.55
- pIC50 [41]: 7.34
- pIC50 [42]: 7.31
- pIC50 [43]: 7.28
- pIC50 [44]: 7.27
- pIC50 [45]: 7.27
- pIC50 [46]: 7.27
- pIC50 [47]: 7.26
- pIC50 [48]: 7.23
- pIC50 [49]: 7.18
- pIC50 [50]: 7.16
- pIC50 [51]: 7.16
